Experimental data taken from US9695162B2, “Sweet flavor modifier” (SENOMYX, INC., priority 2013, dated 2017).

Tests used:
[1] = test system: human panelists (sweet taste); assay: Paired comparison taste test: enhancement of sucrose at pH 7.1 (6% sucrose + compound vs. 10%, 11% or 12% sucrose); format: in vivo
Procedure: (§1) Experiment 1: Sweet Flavor and Sweet Flavor Enhancement Measurement Using Human Panelists Conducting a Paired Comparison Test
(§2) Test samples containing experimental compounds were presented in pairs to the panelist and they were asked to determine which of the sample is sweeter. […] A group of 10-16 or more panelists participated in each test. Subjects refrained from eating or drinking (except water) for at least 1 hour prior to the test. Subjects rinsed with water several times to clean the mouth.
(§3) Taste tests were performed with sucrose or HFCS as the sweetener in the presence or absence of compound. A 0.2% stock solution of compound in water with sodium bicarbonate was prepared and then this stock solution was diluted in the final sample to achieve the targeted final concentration of compound. For the sample evaluated at pH 2.8 the pH of the solution is decreased to about pH 2.8 using citric acid. Taste samples were also prepared in a low sodium phosphate buffer (pH 7.1; “LSB”) lacking sucrose or HFCS to evaluate the taste of the compound alone. Low sodium phosphate buffer consists of 0.3 mM KCl, 0.5 mM Na2HPO4, and 0.175 mM KH2PO4. Sample volumes are usually 20 ml.
(§4) In one paired comparison test, the panelist was presented with two different samples and asked to identify the sample which is sweeter. The samples within a paired comparison test were presented in a randomized, counterbalanced order. Panelists had up to a 1 minute delay between taste tests to clear the mouth of any tastes.
(§5) Binomial probability tables were used to determine the probability of the correct number of responses occurring for each test at alpha=0.05

[2] = test system: human panelists (sweet taste); assay: Paired comparison taste test: enhancement of sucrose at pH 2.8 (6% sucrose + compound vs. 10%, 11% or 12% sucrose); format: in vivo
Procedure: as §1, §2, §3, §4, §5

[3] = test system: human panelists (sweet taste); assay: Sweetness threshold: paired comparison taste test, LSB + compound vs. 1% sucrose; format: in vivo
Procedure: as §1, §2, §3, §4, §5

[4] = test system: human panelists (sweet taste); assay: Paired comparison taste test: enhancement of HFCS at pH 2.8 (6% HFCS + compound vs. 8% or 9% HFCS); format: in vivo
Procedure: as §1, §2, §3
In one paired comparison test, the panelist was presented with two different samples and asked to identify the sample which is sweeter. […]

[5] = 10% Sucrose vs 6% Sucrose + 10 ppm Compound A1, n = 32 (16 panelists × 2 reps)
[6] = 11% Sucrose vs 6% Sucrose + 5 ppm Compound A1, n = 33
[7] = 1% Sucrose vs LSB + 25 ppm Compound A1, n = 26 (13 panelists × 2 reps)

| SMILES | melting point | Sample selected as sweeter by panelists (Total) [1, 5] | Sample selected as sweeter by panelists (Total) [2, 6] | Sample selected as sweeter by panelists (Total) [3, 7] | further results |
| --- | --- | --- | --- | --- | --- |
| CC(C)(COc1cccc2c1C(N)=NS(=O)(=O)N2)NC(=O)c1ccnc(-n2cnc(C(=O)O)c2)c1 [Example 37, 1-(4-((1-((4-amino-2,2-dioxido-1H-benzo[c][1,2,6]thiadiazin-5-yl)oxy)-2-methylpropan-2-yl)carbamoyl)pyridine-2yl)1H-imidazole-4-carboxylic acid] | > 200 °C |  |  |  |  |
| CC(C)(COc1cccc2c1C(N)=NS(=O)(=O)N2)NC(=O)c1ccnc(-n2ccnc2N)c1.Cl | 235 to 237 °C (dec.) |  |  |  |  |
| OC[C@H]1O[C@@](CO)(O[C@H]2O[C@H](CO)[C@@H](O)[C@H](O)[C@H]2O)[C@@H](O)[C@@H]1O [Sucrose, sucrose, reference compound] |  | 14 | 21 | 14 | Sample selected as sweeter by panelists (Total) ([1]; 11% Sucrose vs 6% Sucrose + 5 ppm Compound A6, n = 48 (16 panelists × 3 reps)): 24; Sample selected as sweeter by panelists (Total) ([2]; 12% Sucrose vs 6% Sucrose + 5 ppm Compound A6, n = 48 (16 panelists × 3 reps)): 22; Sample selected as sweeter by panelists (Total) ([3]; 1% Sucrose vs LSB + 10 ppm Compound A6, n = 30 (10 panelists × 3 reps)): 18 |
| CC(C)(COc1cccc2c1C(N)=NS(=O)(=O)N2)NC(=O)c1ccnc(-n2cnc(CO)c2)c1 [Example 36, N-(1-((4-amino-2,2-dioxido-1H-benzo[c][1,2,6]thiadiazin-5-yl)oxy)-2-methylpropan-2-yl)-2-(4-(hydroxymethyl)-1H-imidazol-1-yl)isonicotinamide] | > 200 °C |  |  |  |  |
| CC(C)(COc1cccc2c1C(N)=NS(=O)(=O)N2)NC(=O)c1ccncc1 [Compound A1, N-(1-(4-amino-2,2-dioxido-1H-benzo[c][1,2,6]thiadiazin-5-yloxy)-2-methylpropan-2-yl)isonicotinamide] |  | 18 | 12 | 12 | Sucrose solution of equivalent sweetness (% sucrose) ([1]; 10 ppm compound in 6% sucrose): ~10%; Sucrose solution of equivalent sweetness (% sucrose) ([2]; 5 ppm compound in 6% sucrose): ~11%; HFCS solution of equivalent sweetness (% High Fructose Corn Syrup) ([4]; 5 ppm compound in 6% High Fructose Corn Syrup): ~9%; Sample selected as sweeter by panelists (Total) ([4]; 9% High Fructose Corn Syrup vs 6% High Fructose Corn Syrup + 20 ppm Compound A1, n = 32 (16 panelists × 2 reps)): 12 |
